Measured values: patent US11351215B2, “Composition for preventing hair loss and stimulating hair-growth” (MOTHER″S PHARMACEUTICAL CO., LTD., priority 2018, dated 2022)
“And” between values parts separate entries of the source, which are not always exact repeats. Equal entries are not always repeated.

Legend:
Assay type in all cases: in vivo, mouse
male C57BL/6 mice [1] = assay: Skin tissue pathology test, H&E staining (Example 2-2); conditions: H&E stained skin tissue, day 12
Experimental: (§1) The skin tissue pathology test was conducted on day 12 by H&E staining using Hematoxylin and Eosin, which are widely used. A sample was collected from the skin tissue of the sacrificed animals and the generation of hair follicles and phenomena of hair-growth were identified through fixation, washing, clearing, paraffin infiltration, embedding, microtome cutting, staining and reading processes.

male C57BL/6 mice [2] = assay: Hair-growth efficacy test in catagen inhibition animal model, visual inspection, Centipeda minima extracts (Example 2-1); conditions: Day 5 after 7 days of administration (+12 day); topical 100 μL twice a day; dexamethasone-induced catagen
Source text: (§2) To proceed with the hair-growth efficacy test in the catagen inhibition animal model of Centipeda minima extract, male C57BL/6 mice (5 weeks of age) were purchased and subjected to acclimation for 1 week and selected animals weighing 20 to 24 g. In the case of an animal in which skin damage occurred during hair removal, or if the skin color was black, the growth period was already in progress, so it was inappropriate for this experiment and was excluded from the experiment.
The test group was divided into a normal group, a negative control group, a test substance-administered group, and a positive control groups 1 and 2. The normal group had three mice, the negative control group had 4 mice, the test substance-administered group had 4 mice, and the positive control group 1 (Tofacitinib) had four mice, and the positive control group 2 (Minoxidil) had four mice. […]
Further, to quantify the results of hair-growth efficacy visual inspection, a black portion (anagen) or a region where hair-growth begins in the entire hair removal site (solvent or test substance, positive control substance application site) was visually observed. […]

male C57BL/6 mice [3] = assay: Skin tissue pathology test, H&E staining (Example 1-2); conditions: H&E stained skin tissue after end of experiment
Experimental: as §1, with “conducted” for “conducted on day 12”, “generally used widely.” for “widely used.”
In this study, Anagen_Early (A/e) indicates the state in which hair has just begun to develop and Anagen_late (A/l) and Catagen_early (C/e) indicate that hair-growth is in full swing. Anagen_late and Catagen_early have histologically similar positions of the hair bulb. When considering morphological changes according to tissue sections, it is necessary to consider that it is often unclear to distinguish there between. Nevertheless, the hair follicles in the Anagen_late and Catagen_early stages are generally considered as similar stages of development, and the results are interpreted.

male C57BL/6 mice [4] = assay: Hair-growth efficacy test in catagen inhibition animal model, visual inspection with image analysis (Example 1-1); conditions: values of individual mice
Source text: as §2, with “16” for “20”, “21” for “24”
The test group was divided into a normal group, a negative control group, a test substance-administered group, and a positive control groups 1 and 2. Each of the normal group and the negative control group had 1 mouse, the test substance-administered group had 3 mice, and the positive control group 1 had two mice, and the positive control group 2 had one mouse. […]
Further, in order to quantify the results of hair-growth efficacy visual inspection, image analysis was performed on the entire epilation site (solvent or test substance, positive control substance application site) that is black (anagen) or a site where hair-growth begins. […] The result was quantified in %. […]

Compound	hair follicle generation and hair-growth efficacy (skin histology, FIG. 9) (male C57BL/6 mice [1])	Hair-growth efficacy (%) (male C57BL/6 mice [2])	hair follicle generation and hair-growth efficacy (skin histology, FIG. 5) (male C57BL/6 mice [3])	hair-growth efficacy (image analysis of epilation site) (male C57BL/6 mice [4]; Day 17 after administration, 0.1% dexamethasone to maintain catagen)	tendency to migrate to anagen (black/hair-growth area of epilation site, image analysis) (male C57BL/6 mice [4]; on 3 days of administration, topical 100 μL twice a day, dexamethasone-induced catagen)
C[C@@H]1CCN(C(=O)CC#N)C[C@@H]1N(C)c1ncnc2[nH]ccc12 [Tofacitinib]	only minimal hair follicle generation and hair-growth efficacy degree	25			
6-amino-1,2-dihydro-1-hydroxy-2-imino-4-phenoxypyrimidine [Minoxidil]	only minimal hair follicle generation and hair-growth efficacy degree	45	only minimal hair follicle generation and hair-growth efficacy degree	6.1% and 21.2%	0.1% and 0.3%
